Results taken from patent US9499553B2 (CHUGAI SEIYAKU KABUSHIKI KAISHA, priority 2013, dated 2016).
Structures can show the parent of a compound that is named as a salt.

Tests used:
Format in all cases: cell-based
human PiT-2 = biological target: T1, human PiT-2 (Homo sapiens, UniProt Q08357); assay: Inhibitory effect on 33PO4 uptake into human PiT-2-expressing CHO cells; details: pH 6.5, read-out: IC50 against 33PO4 uptake into human PiT-2-expressing cells
T1 construct: expressed in transfected cells; host or cells: CHO cells
T1 sequence (Q08357 1-652): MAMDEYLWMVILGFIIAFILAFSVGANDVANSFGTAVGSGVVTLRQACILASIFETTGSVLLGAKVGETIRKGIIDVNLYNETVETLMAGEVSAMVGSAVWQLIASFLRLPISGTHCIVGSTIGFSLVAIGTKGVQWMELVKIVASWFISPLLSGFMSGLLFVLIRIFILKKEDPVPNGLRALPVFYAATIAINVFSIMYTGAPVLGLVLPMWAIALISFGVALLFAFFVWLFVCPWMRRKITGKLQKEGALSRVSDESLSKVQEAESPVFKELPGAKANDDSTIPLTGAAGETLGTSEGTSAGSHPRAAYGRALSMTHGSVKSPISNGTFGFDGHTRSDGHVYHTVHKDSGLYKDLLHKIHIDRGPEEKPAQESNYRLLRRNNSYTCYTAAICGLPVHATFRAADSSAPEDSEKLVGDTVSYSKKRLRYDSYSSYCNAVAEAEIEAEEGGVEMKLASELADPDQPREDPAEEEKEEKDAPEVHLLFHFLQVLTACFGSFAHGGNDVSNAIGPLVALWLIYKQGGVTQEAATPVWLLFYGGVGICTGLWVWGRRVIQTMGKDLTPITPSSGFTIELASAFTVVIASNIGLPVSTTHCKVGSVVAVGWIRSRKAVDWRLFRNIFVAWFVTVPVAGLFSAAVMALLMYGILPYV
Method: Test Example 4: Inhibitory Effect on ^33PO4 Uptake into Human PiT-2-Expressing Cell
(§1) CHO cells were transfected with human PiT-2 expression plasmids or empty vectors to prepare human PiT-2-expressing cells and empty vector-expressing cells. The human PiT-2-expressing cells or the empty vector-expressing cells were inoculated to a 96-well plate and incubated overnight in a CO2 incubator. […] After a given time, a 1/20 volume of buffer A containing ^33PO4 was added thereto and reacted at room temperature. After washing with ice-cold buffer A, a liquid scintillator was added to each reaction mixture, and the amount of ^33PO4 uptake was measured using TopCount. The rate of inhibition was determined according to the following expression: Rate (%) of inhibition=(1−(Amount of ^33PO4 uptake in the compound-supplemented well containing the human PiT-2-expressing cells−Amount of ^33PO4 uptake in the compound-supplemented well containing the empty vector-expressing cells)/(Amount of ^33PO4 uptake in the DMSO-supplemented well containing the human PiT-2-expressing cells −Amount of ^33PO4 uptake in the DMSO-supplemented well containing the empty vector-expressing cells))×100

human PiT-1 = biological target: T2, human PiT-1 (Homo sapiens, UniProt Q8WUM9); assay: Inhibitory effect on 33PO4 uptake into human PiT-1-expressing CHO cells; details: compound 0.24, 1.2, 6 or 30 μM, pH 6.5, read-out: IC50 against 33PO4 uptake into human PiT-1-expressing cells
T2 construct: expressed in transfected cells; host or cells: CHO cells
T2 sequence (Q8WUM9 1-679): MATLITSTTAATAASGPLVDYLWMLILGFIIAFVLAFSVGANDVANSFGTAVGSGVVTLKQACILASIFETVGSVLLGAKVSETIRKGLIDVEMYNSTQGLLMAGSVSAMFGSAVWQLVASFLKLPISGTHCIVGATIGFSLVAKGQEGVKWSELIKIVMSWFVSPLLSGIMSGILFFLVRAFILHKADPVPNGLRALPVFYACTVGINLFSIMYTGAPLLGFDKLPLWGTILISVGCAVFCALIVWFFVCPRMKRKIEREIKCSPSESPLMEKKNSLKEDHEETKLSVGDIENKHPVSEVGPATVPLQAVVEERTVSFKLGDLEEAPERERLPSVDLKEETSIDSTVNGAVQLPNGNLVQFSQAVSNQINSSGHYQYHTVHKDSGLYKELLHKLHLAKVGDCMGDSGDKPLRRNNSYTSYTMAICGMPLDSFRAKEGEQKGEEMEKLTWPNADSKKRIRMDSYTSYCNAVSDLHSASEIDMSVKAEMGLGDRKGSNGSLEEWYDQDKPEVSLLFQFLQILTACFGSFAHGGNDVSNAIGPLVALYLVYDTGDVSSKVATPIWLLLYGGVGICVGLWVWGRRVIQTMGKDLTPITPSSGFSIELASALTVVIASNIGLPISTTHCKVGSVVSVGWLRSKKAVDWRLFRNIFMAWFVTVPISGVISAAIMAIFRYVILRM
Method: Test Example 3: Inhibitory Effect on ^33PO4 Uptake into Human PiT-1-Expressing Cell
as §1, with “PiT-1” for “PiT-2”, “PiT-1-expressing” for “PiT-2-expressing”

human NaPi-IIb = biological target: T3, human NaPi-IIb (Homo sapiens, UniProt O95436); assay: Inhibitory effect on 33PO4 uptake into human NaPi-IIb-expressing CHO cells; details: read-out: IC50
T3 construct: expressed in transfected cells
T3 sequence (O95436 1-690): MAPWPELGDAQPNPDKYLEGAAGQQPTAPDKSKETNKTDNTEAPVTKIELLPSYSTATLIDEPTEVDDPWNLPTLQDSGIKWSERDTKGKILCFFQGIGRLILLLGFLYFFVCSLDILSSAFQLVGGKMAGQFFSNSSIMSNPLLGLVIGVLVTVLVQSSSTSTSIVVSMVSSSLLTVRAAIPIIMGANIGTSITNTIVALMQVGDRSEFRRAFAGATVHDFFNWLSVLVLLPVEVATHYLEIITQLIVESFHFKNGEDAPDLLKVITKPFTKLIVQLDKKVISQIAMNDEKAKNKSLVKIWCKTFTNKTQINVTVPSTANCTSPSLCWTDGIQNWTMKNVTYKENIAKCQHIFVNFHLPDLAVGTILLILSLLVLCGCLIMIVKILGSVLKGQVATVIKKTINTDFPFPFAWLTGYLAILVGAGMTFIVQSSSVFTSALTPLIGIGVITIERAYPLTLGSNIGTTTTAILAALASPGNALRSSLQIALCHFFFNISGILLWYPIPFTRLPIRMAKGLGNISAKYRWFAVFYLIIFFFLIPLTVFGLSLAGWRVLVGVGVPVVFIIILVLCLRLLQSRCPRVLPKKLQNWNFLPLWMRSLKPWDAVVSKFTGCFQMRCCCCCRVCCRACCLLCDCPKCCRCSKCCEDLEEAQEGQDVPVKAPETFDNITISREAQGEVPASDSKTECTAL
Summary of the method: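 Uptake of ³³PO4 was measured by scintillation counting after ice-cold buffer A washes. Cells were CHO stably expressing human NaPi-IIb, seeded overnight, and exposed to ³³PO4 in buffer A at room temperature.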

| IC50 (human PiT-2) [µM] | IC50 (human PiT-1) [µM] | IC50 (human NaPi-IIb) [µM] | SMILES |
| --- | --- | --- | --- |
| 3.8 | 3.8 | 16.2 | C[C@]12CCCN1N(Cc1ccc(C#CCN3CCOCC3)c(F)c1F)C(=O)C(C(=O)Nc1ccc(C(F)(F)F)cc1-c1ccc(C(F)(F)F)nc1)=C2O [Example 140, (4aR)-1-[[2,3-Difluoro-4-(3-morpholin-4-ylprop-1-ynyl)phenyl]methyl]-4-hydroxy-4a-methyl-2-oxo-N-[4-(trifluoromethyl)-2-[6-(tri-fluoromethyl)pyridin-3-yl]phenyl]-6,7-dihydro-5H-pyrrolo[1,2-b]pyridazine-3-carboxamide] |
| 8.4 | 4.4 | 21.5 | C[C@]12CCCN1N(Cc1ccc(OCCCOC[C@H](O)CO)c(F)c1F)C(=O)C(C(=O)Nc1ccc(C(F)(F)F)cc1-c1ccc(C(F)(F)F)nc1)=C2O [Example 147, (4aR)-1-[[4-[3-[(2R)-2,3-Dihydroxypropoxy)propoxy]-2,3-difluorophenyl]methyl]-4-hydroxy-4a-methyl-2-oxo-N-[4-(trifluoromethyl)-2-[6-(trifluoromethyl)pyridin-3-yl]phenyl]-6,7-dihydro-5H-pyrrolo [1,2-b]pyridazine-3-carboxamide] |
| 7.2 | 3.9 | 3.2 | C[C@]12CCCN1N(Cc1ccc(OCCCCCCOC[C@H](O)CO)c(F)c1F)C(=O)C(C(=O)Nc1cnc(C(F)(F)F)nc1-c1ccc(C(F)(F)F)nc1)=C2O [Example 156, (4aR)-1-[[4-[6-[(2R)-2,3-Dihydroxypropoxy]hexoxy]-2,3-difluorophenyl]methyl]-4-hydroxy-4a-methyl-2-oxo-N-[2-(trifluoromethyl)-4-[6-(trifluoromethyl)pyridin-3-yl]pyrimidin-5-yl]-6,7-dihydro-5H-pyrrolo[1,2-b]pyridazine-3-carboxamide] |
| 3.9 | 3.8 | 19.1 | C[C@]12CCCN1N(Cc1ccc(OCCN3CCOCC3)c(F)c1F)C(=O)C(C(=O)Nc1ccc(C(F)(F)F)cc1-c1cc(C(F)(F)F)ncn1)=C2O [Example 157, (4aR)-1-[[2,3-Difluoro-4-(2-morpholin-4-ylethoxy)phenyl]methyl]-4-hydroxy-4a-methyl-2-oxo-N-[4-(trifluoromethyl)-2-[6-(trifluoromethyl)pyrimidin-4-yl]phenyl]-6,7-dihydro-5H-pyrrolo [1,2-b]pyridazine-3-carboxamide] |
| 6.2 | 5.6 | 2.8 | C[C@]12CCCN1N(Cc1cccc(Cl)c1F)C(=O)C(C(=O)Nc1cc(F)c(Br)c(F)c1)=C2O [Example 196, (4aR)-N-(4-Bromo-3,5-difluorophenyl)-1-[(3-chloro-2-fluorophenyl)methyl]-4-hydroxy-4a-methyl-2-oxo-6,7-dihydro-5H-pyrrolo[1,2-b]pyridazine-3-carboxamide] |
| 3.8 | 4.6 | 19.4 | CN1[C@@H](C(C)(C)C)C(O)=C(C(=O)Nc2ccc(C(F)(F)F)cc2-c2cc(C(F)(F)F)ncn2)C(=O)N1Cc1ccc(OCCN2CCOCC2)c(F)c1F [Example 264, (3S)-3-tert-Butyl-1-[[2,3-difluoro-4-(2-morpholin-4-ylethoxy)phenyl]methyl]-4-hydroxy-2-methyl-6-oxo-N-[4-(trifluoromethyl)-2-[6-(trifluoromethyl)pyrimidin-4-yl]phenyl]-3H-pyridazine-5-carboxamide] |
| 4.7 | 4.1 | 7.5 | CN1[C@@H](C(C)(C)C)C(O)=C(C(=O)Nc2ccc(Cl)cc2-c2ccc(C(F)(F)F)nc2)C(=O)N1Cc1ccc(OCCN2CCOCC2)c(F)c1F [Example 267, (3S)-3-tert-Butyl-N-[4-chloro-2-[6-(trifluoromethyl)pyridin-3-yl]phenyl]-1-[[2,3-difluoro-4-(2-morpholin-4-ylethoxy)phenyl]methyl]-4-hydroxy-2-methyl-6-oxo-3H-pyridazine-5-carboxamide] |

| SMILES | IC50 (human PiT-2) [µM] | IC50 (human PiT-1) [µM] | IC50 (human NaPi-IIb) [µM] |
| --- | --- | --- | --- |
| C[C@]12CCCN1N(Cc1ccc(OCCCCOC[C@H](O)CO)c(F)c1F)C(=O)C(C(=O)Nc1ccc(C(F)(F)F)cc1-c1cc(C(F)(F)F)ncn1)=C2O [Example 152, (4aR)-1-[[4-[4-[(2R)-2,3-Dihydroxypropoxy]butoxy]-2,3-difluorophenyl]methyl]-4-hydroxy-4a-methyl-2-oxo-N-[4-(trifluoromethyl)-2-[6-(trifluoromethyl)pyrimidin-4-yl]phenyl]-6,7-dihydro-5H-pyrrolo [1,2-b]pyridazine-3-carboxamide] | 3.5 | 5.3 | 20.6 |
| C[C@]12CCCN1N(Cc1ccc(CN3CCOCC3)c(F)c1F)C(=O)C(C(=O)Nc1ccc(C(F)(F)F)cc1-c1ccc(C(F)(F)F)nc1)=C2O [Example 164, (4aR)-1-[[2,3-Difluoro-4-(morpholin-4-ylmethyl)phenyl]methyl]-4-hydroxy-4a-methyl-2-oxo-N-[4-(trifluoromethyl)-2-[6-(trifluoromethyl)pyridin-3-yl]phenyl]-6,7-dihydro-5H-pyrrolo [1,2-b]pyridazine-3-carboxamide; hydrochloride] | 4.1 | 4.1 | 5 |
